These results are taken from patent US12590095B2, “Crystalline forms of an orally available, selective kit and PDGFR kinase inhibitor” (Sandoz AG, priority 2019, dated 2026).

Common to all, as to type: physicochemical
A short description of series [1]: Gravimetric moisture sorption (GMS). Particulars: for mass change during the sorption cycle: GMS, (25±0.1)° C.; for solid form by powder X-ray diffraction after the GMS experiment: after full sorption/desorption cycle 0-90% RH; for hygroscopicity: judged from GMS mass change. The method, then: Moisture sorption isotherms were recorded along with other samples with an SPSx-1μ moisture sorption analyzer (ProUmid, Ulm). The measurement cycle was started at ambient relative humidity (RH) of 25% (Form A) or 40% (Form B and Form Hy1). Relative humidity was then decreased to 5% in 5% steps, followed by a further decrease to 3% and to 0%. Afterwards RH was increased from 0% to 90% in a sorption cycle and decreased to 0% in a desorption cycle in 5% steps. Finally, the RH was increased to a relative humidity of 25% (Form A) or 40% (Form B and Form Hy1) in 5% steps. The time per step was set to a minimum of 2 hours and a maximum of 6 hours. If an equilibrium condition with a constant mass of +0.01% within 1 hour was reached before the maximum time for all examined samples the sequential humidity step was applied before the maximum time of 6 hours. If no equilibrium was achieved the consecutive humidity step was applied after the maximum time of 6 hours. The temperature was (25±0.1)° C.

Series [2] is described as follows: Thermogravimetric analysis (TGA). The settings on record: for TGA mass loss: 10 K/min. The procedure: TGA was performed on a Mettler TGA/DSC 1 instrument. The samples (8.29 mg Form A, 8.11 mg Form B, 4.12 mg Form Hy1) were each weighed into a 100 microliter aluminum pan closed with an aluminum lid. The lid was automatically pierced at the beginning of the measurement. The samples were each heated from 25 to 250° C. at a rate of 10 K/min. Nitrogen (purge rate 50 mL/min) was used as purge gas.

Series [3] in a line: Slurry experiments in aqueous isopropanol, form checked by PXRD. Particulars: for form found by PXRD after slurry: aqueous isopropanol 3:1, 0° C. The method, then:
Form A and Form B of avapritinib were each slurried in aqueous isopropanol [4 mL, 3:1 (volume:volume)] at 0° C., 20° C. and 40° C., respectively. Samples were taken after 1 and 5 days and investigated by powder-X-ray diffraction.

The nature of series [4]: Storage stability under various stress conditions, form checked by PXRD. Particulars: 6 months. From the text: Avapritinib Form A, Form B and hydrate Form Hy1 were each subjected to the various stress conditions listed in Table 8 for 6 months and the samples were investigated by powder X-ray diffraction.

As for `Cn1cc(-c2cc3c(N4CCN(c5ncc([C@@](C)(N)c6ccc(F)cc6)cn5)CC4)ncnn3c2)cn1` [Form A, (1S)-1-(4-fluorophenyl)-1-(2-[4-[6-(1-methyl-1H-pyrazol-4-yl)pyrrolo[2,1-f][1,2,4]triazin-4-yl]piperazin-1-yl]pyrimidin-5-yl)ethan-1-amine], in series [1] (0-90% RH), the “mass change during the sorption cycle” value is “about 0.1 weight %”. Moreover, in series [1], the “solid form by powder X-ray diffraction after the GMS experiment” value (“solid form by powder X-ray diffraction” for short) was “Form A” and the hygroscopicity entry is “non-hygroscopic”. Also, the TGA mass loss entry in series [2] (up to about 190° C.) is listed as “about 0.3 weight %”. The “stability in slurry experiments” value in series [3] (all applied conditions (0, 20, 40° C.; 1 and 5 days)) is on record as “remained stable”. Further, the “thermodynamic relationship of Form A and Form B” value in series [3] (from slurry experiments and DSC at 1 K/min) is reported as “the stable form below its melting point”.

`Cn1cc(-c2cc3c(N4CCN(c5ncc([C@@](C)(N)c6ccc(F)cc6)cn5)CC4)ncnn3c2)cn1` [Form B, (1S)-1-(4-fluorophenyl)-1-(2-[4-[6-(1-methyl-1H-pyrazol-4-yl)pyrrolo[2,1-f][1,2,4]triazin-4-yl]piperazin-1-yl]pyrimidin-5-yl)ethan-1-amine]: the “mass change during the sorption cycle” value in series [1] (0-90% RH) is listed as “about 0.3 weight %”. Also, the “solid form by powder X-ray diffraction” value in series [1] is “Form B”. The hygroscopicity entry in series [1] is listed as “only slightly hygroscopic”. Moreover, the TGA mass loss entry in series [2] (up to about 180° C.) is given as “about 0.3 weight-%”. The “conversion in slurry experiments” value was “partially converted to Form A” in series [3] (0° C.); “fully converted to Form A” in series [3] (20° C. and 40° C., already after 1 day). For the same compound, the “form found by PXRD after slurry” value in series [3] (1 day) is reported as “B + A”; in series [3] (5 days) it was “A + B”.

Consider `Cn1cc(-c2cc3c(N4CCN(c5ncc([C@@](C)(N)c6ccc(F)cc6)cn5)CC4)ncnn3c2)cn1` [Form Hy1], for which, in series [1] (10-90% RH), the “mass change during the sorption cycle” value is given as “about 1.4 weight %”. For the same compound, in series [1], the “solid form by powder X-ray diffraction” value is “Form Hy1”. In addition, in series [1], the hygroscopicity result is recorded as “only slightly hygroscopic”. In series [2] (from beginning of measurement until about 110° C.), this compound displayed a TGA mass loss of 3.5 weight-%. In addition, the “water corresponding to TGA mass loss” value in series [2] (until about 110° C.) was “approximately 1 mol equivalent”. For the same compound, the “form found by PXRD after stress test” value in series [4] (25° C./60% RH), in series [4] (30° C./65% RH), in series [4] (40° C./75% RH) and in series [4] (RT/97% RH) was “Hy1” each time.
